From PubChem BioAssay AID1963966 (Molecular Pharmacology Branch, DTP, NCI, 2024)
pIC50: −log10 of the molar value.

System: 935938-334-R-J1-PDC spheroids with HUVEC/MSC, viability
Assay: Anticancer human tumor 935938-334-R-J1-PDC patient-derived small intestine adenocarcinoma cell line growth inhibition [PI3K]
Details: for pIC50: curve of first compound; for viability, T/C: stronger effect = lower value
Summary of the method: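 Multi-cell spheroids combine tumor cells with HUVEC and human MSCs, treated with targeted agents alone or with inavolisib, alpelisib, duvelisib or copanlisib. Concentrations fall in half-log steps from at or near clinical Cmax, or from 10 microM where Cmax is unknown; viability read-out.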

[1] = second compound 0.0316 µM, first compound 0.0316 µM
[2] = second compound 0.0316 µM, first compound 0.1 µM
[3] = second compound 0.1 µM, first compound 0.0316 µM
[4] = second compound 0.1 µM, first compound 0.1 µM
[5] = second compound 0.316 µM, first compound 0.0316 µM
[6] = second compound 0.316 µM, first compound 0.1 µM
[7] = second compound 1 µM, first compound 0.0316 µM
[8] = second compound 1 µM, first compound 0.1 µM
[9] = second compound 3.16 µM, first compound 0.0316 µM
[10] = second compound 3.16 µM, first compound 0.1 µM
[11] = second compound 10 µM, first compound 0.0316 µM
[12] = second compound 10 µM, first compound 0.1 µM
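Note: compound exposure lasted seven days before viability was read.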
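Throughout, for viability, T/C: percent of vehicle DMSO treated spheroid viability so 100% = untreated.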

SMILES: CC(C)n1nc(-c2ccc3oc(N)nc3c2)c2c(N)ncnc21 + Cc1nc(NC(=O)N2CCCC2C(N)=O)sc1-c1ccnc(C(C)(C)C(F)(F)F)c1
- pIC50 (second compound 0.0316 µM): < 7.00
- pIC50 (second compound 0.1 µM): < 7.00
- pIC50 (second compound 0.316 µM): 7.77
- pIC50 (second compound 1 µM): 8.14
- pIC50 (second compound 3.16 µM): 8.42
- pIC50 (second compound 10 µM): > 9.50
- viability, T/C (second compound 0.0316 µM, first compound 0.000316 µM): 91.5%
- viability, T/C (second compound 0.0316 µM, first compound 0.001 µM): 91%
- viability, T/C (second compound 0.0316 µM, first compound 0.00316 µM): 81.3%
- viability, T/C (second compound 0.0316 µM, first compound 0.01 µM): 93.6%
- viability, T/C [1]: 64.9%
- viability, T/C [2]: 51.6%
- viability, T/C (second compound 0.1 µM, first compound 0.000316 µM): 89%
- viability, T/C (second compound 0.1 µM, first compound 0.001 µM): 82.1%
- viability, T/C (second compound 0.1 µM, first compound 0.00316 µM): 75.9%
- viability, T/C (second compound 0.1 µM, first compound 0.01 µM): 92%
- viability, T/C [3]: 68.7%
- viability, T/C [4]: 54.5%
- viability, T/C (second compound 0.316 µM, first compound 0.000316 µM): 83.4%
- viability, T/C (second compound 0.316 µM, first compound 0.001 µM): 72.2%
- viability, T/C (second compound 0.316 µM, first compound 0.00316 µM): 92.8%
- viability, T/C (second compound 0.316 µM, first compound 0.01 µM): 54.1%
- viability, T/C [5]: 54.9%
- viability, T/C [6]: 35.5%
- viability, T/C (second compound 1 µM, first compound 0.000316 µM): 66.5%
- viability, T/C (second compound 1 µM, first compound 0.001 µM): 74.3%
- viability, T/C (second compound 1 µM, first compound 0.00316 µM): 66.8%
- viability, T/C (second compound 1 µM, first compound 0.01 µM): 42.5%
- viability, T/C [7]: 37.6%
- viability, T/C [8]: 27.1%
- viability, T/C (second compound 3.16 µM, first compound 0.000316 µM): 51%
- viability, T/C (second compound 3.16 µM, first compound 0.001 µM): 59.8%
- viability, T/C (second compound 3.16 µM, first compound 0.00316 µM): 47.8%
- viability, T/C (second compound 3.16 µM, first compound 0.01 µM): 43%
- viability, T/C [9]: 27.3%
- viability, T/C [10]: 28.9%
- viability, T/C (second compound 10 µM, first compound 0.000316 µM): 35.5%
- viability, T/C (second compound 10 µM, first compound 0.001 µM): 37.7%
- viability, T/C (second compound 10 µM, first compound 0.00316 µM): 61.5%
- viability, T/C (second compound 10 µM, first compound 0.01 µM): 35%
- viability, T/C [11]: 37.3%
- viability, T/C [12]: 30.1%

SMILES: CC1(C)CCC(CN2CCN(c3ccc(C(=O)NS(=O)(=O)c4ccc(NCC5CCOCC5)c([N+](=O)[O-])c4)c(Oc4cnc5[nH]ccc5c4)c3)CC2)=C(c2ccc(Cl)cc2)C1 + Cc1nc(NC(=O)N2CCCC2C(N)=O)sc1-c1ccnc(C(C)(C)C(F)(F)F)c1
- pIC50 (second compound 0.0316 µM): 5.17
- pIC50 (second compound 0.1 µM): 5.13
- pIC50 (second compound 0.316 µM): 5.19
- pIC50 (second compound 1 µM): 5.27
- pIC50 (second compound 3.16 µM): 5.37
- pIC50 (second compound 10 µM): > 7.50
- viability, T/C [1]: 85.1%
- viability, T/C [2]: 97.9%
- viability, T/C (second compound 0.0316 µM, first compound 0.316 µM): 91.5%
- viability, T/C (second compound 0.0316 µM, first compound 1 µM): 80.6%
- viability, T/C (second compound 0.0316 µM, first compound 3.16 µM): 87.7%
- viability, T/C (second compound 0.0316 µM, first compound 10 µM): 30.7%
- viability, T/C [3]: 81.9%
- viability, T/C [4]: 97.5%
- viability, T/C (second compound 0.1 µM, first compound 0.316 µM): 89.3%
- viability, T/C (second compound 0.1 µM, first compound 1 µM): 99.4%
- viability, T/C (second compound 0.1 µM, first compound 3.16 µM): 101%
- viability, T/C (second compound 0.1 µM, first compound 10 µM): 34.6%
- viability, T/C [5]: 96.3%
- viability, T/C [6]: 99%
- viability, T/C (second compound 0.316 µM, first compound 0.316 µM): 76.5%
- viability, T/C (second compound 0.316 µM, first compound 1 µM): 55.2%
- viability, T/C (second compound 0.316 µM, first compound 3.16 µM): 92.4%
- viability, T/C (second compound 0.316 µM, first compound 10 µM): 29.8%
- viability, T/C [7]: 82%
- viability, T/C [8]: 75.5%
- viability, T/C (second compound 1 µM, first compound 0.316 µM): 72.4%
- viability, T/C (second compound 1 µM, first compound 1 µM): 57.4%
- viability, T/C (second compound 1 µM, first compound 3.16 µM): 70.8%
- viability, T/C (second compound 1 µM, first compound 10 µM): 25.4%
- viability, T/C [9]: 52.3%
- viability, T/C [10]: 67%
- viability, T/C (second compound 3.16 µM, first compound 0.316 µM): 53.5%
- viability, T/C (second compound 3.16 µM, first compound 1 µM): 58.6%
- viability, T/C (second compound 3.16 µM, first compound 3.16 µM): 60%
- viability, T/C (second compound 3.16 µM, first compound 10 µM): 26.2%
- viability, T/C [11]: 38.1%
- viability, T/C [12]: 42.1%
- viability, T/C (second compound 10 µM, first compound 0.316 µM): 36.6%
- viability, T/C (second compound 10 µM, first compound 1 µM): 44.4%
- viability, T/C (second compound 10 µM, first compound 3.16 µM): 48%
- viability, T/C (second compound 10 µM, first compound 10 µM): 31.4%
